For one experiment, the system named is INS1. Nature of the experiment: INS-1E survival protection against cytokine death – cell-based, luminescence, retest, dose response (AID 449756).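 Further: cell death triggered by IL-1 beta plus TNF-alpha plus IFN-gamma mixture; protective hits raise ATP signal compared with cytokine alone wells.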 Conditions: Rattus norvegicus. Format: functional.
Experiment [1] concerns Streptococcus sp. 'group A'. Nature of the experiment: Streptococcus pyogenes SK(-)GAS viability under kanamycin – luminescence, BacTiterGlo, confirmation, counter-screen for streptokinase expression inhibitor project, dose response (AID 1900). Format: functional, organism-based.
The next experiment has as its target T1, Exodeoxyribonuclease V (Escherichia coli (strain K12), UniProt P04993+P07648+P08394).
T1 sequence (P04993 whole entry): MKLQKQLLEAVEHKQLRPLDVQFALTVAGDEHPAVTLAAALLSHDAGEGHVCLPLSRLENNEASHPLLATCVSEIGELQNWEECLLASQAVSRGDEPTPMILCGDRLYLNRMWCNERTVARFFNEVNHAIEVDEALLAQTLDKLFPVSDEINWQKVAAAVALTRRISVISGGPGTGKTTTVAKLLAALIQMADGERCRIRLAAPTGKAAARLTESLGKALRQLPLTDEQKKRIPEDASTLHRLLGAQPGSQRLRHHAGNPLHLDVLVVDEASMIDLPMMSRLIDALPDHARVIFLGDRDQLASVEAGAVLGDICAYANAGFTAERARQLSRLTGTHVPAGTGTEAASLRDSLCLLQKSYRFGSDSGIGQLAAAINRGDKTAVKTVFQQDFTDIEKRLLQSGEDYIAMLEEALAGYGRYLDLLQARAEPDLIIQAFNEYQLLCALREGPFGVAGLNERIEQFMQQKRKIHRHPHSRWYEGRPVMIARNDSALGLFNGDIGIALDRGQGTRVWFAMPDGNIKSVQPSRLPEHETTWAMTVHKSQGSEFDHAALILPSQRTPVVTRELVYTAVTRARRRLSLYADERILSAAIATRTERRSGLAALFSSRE
T1 sequence (P07648 whole entry): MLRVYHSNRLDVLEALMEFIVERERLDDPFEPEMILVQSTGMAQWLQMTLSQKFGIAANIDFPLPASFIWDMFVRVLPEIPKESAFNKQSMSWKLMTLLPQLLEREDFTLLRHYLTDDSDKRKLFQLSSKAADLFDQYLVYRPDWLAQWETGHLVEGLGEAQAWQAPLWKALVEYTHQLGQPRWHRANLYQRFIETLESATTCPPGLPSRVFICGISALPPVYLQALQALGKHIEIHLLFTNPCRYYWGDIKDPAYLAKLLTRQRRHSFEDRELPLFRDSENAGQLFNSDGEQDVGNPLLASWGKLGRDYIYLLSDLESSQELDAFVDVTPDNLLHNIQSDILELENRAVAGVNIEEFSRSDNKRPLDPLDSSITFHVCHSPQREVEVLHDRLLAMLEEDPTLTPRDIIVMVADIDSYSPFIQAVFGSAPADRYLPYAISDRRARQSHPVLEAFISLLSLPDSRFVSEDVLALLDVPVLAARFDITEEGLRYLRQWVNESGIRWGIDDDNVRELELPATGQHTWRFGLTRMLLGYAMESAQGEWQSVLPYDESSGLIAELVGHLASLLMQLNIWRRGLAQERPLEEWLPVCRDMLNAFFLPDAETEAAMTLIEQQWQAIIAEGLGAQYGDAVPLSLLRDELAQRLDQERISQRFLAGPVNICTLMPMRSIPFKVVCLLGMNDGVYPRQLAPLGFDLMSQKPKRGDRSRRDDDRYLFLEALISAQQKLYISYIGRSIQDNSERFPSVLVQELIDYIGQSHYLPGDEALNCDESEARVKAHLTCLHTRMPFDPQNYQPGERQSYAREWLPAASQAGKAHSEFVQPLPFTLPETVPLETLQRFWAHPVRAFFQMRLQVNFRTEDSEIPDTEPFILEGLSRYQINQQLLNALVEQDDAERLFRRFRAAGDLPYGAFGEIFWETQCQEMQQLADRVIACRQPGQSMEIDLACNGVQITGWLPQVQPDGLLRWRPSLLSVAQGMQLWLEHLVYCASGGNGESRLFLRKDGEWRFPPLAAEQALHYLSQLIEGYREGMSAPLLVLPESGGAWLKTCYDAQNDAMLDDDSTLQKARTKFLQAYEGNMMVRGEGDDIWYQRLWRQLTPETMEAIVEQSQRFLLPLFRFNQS
T1 sequence (P08394 whole entry): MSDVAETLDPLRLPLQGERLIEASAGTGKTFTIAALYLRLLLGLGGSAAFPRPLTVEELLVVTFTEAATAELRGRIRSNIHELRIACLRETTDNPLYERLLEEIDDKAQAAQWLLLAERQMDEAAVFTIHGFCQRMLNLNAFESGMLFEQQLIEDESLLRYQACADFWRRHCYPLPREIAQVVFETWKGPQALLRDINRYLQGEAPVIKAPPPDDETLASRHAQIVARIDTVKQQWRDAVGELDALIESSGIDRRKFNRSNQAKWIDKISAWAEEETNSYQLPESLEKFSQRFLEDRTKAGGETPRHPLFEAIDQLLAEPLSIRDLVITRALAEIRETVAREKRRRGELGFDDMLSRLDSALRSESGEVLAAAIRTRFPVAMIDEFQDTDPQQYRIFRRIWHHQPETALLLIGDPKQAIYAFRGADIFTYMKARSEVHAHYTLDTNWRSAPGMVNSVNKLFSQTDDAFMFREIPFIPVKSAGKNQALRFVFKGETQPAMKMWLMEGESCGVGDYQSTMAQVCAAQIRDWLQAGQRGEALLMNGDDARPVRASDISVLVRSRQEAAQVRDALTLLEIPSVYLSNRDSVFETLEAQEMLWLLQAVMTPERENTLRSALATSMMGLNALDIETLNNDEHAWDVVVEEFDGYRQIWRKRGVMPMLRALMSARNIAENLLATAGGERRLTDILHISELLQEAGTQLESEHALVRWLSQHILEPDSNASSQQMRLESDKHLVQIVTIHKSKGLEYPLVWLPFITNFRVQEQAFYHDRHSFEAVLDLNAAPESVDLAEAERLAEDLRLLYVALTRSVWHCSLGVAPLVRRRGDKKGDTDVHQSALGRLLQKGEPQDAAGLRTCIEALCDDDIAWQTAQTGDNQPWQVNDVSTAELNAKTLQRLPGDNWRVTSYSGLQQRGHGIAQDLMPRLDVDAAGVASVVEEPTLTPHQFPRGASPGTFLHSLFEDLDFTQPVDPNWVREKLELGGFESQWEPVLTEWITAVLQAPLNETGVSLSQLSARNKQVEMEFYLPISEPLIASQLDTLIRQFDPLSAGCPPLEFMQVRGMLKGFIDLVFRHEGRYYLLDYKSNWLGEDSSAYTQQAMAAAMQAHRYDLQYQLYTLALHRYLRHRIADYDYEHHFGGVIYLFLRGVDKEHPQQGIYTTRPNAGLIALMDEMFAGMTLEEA
Nature of the experiment: RecBCD inhibition via phage-restricted bacterial growth – absorbance, V66 E. coli, mutant T4 phage, counter-screen for AddAB inhibitor project, dose response (AID 492957). It is filed as functional, cell-based, Escherichia coli str. K-12 substr. MG1655.

Experiment [2] is described as follows: Counterscreen for AddAB inhibitors: absorbance-based bacterial cell-based high throughput dose response assay for inhibitors of bacterial viability. [Related pubchem assays (depositor defined):AID435030, AID449728, AID449731, AID488942, AID488955, AID488956]. It is filed as functional.

The results in this text go back to ChEMBL document CHEMBL1201862, “PubChem BioAssay data set” (2004).

The source made the active and inactive calls. Bounds are passed on as bounds.

For the compound `Cn1nc(-c2ccc(Cl)cc2)nc2c(=O)n(C)c(=O)nc1-2`, the AC50 with INS1 was 0.441 µM (active).
`COc1ccc(C(NC(=O)C(C)C)c2ccc3cccnc3c2O)cc1` (stereo not drawn): in experiment [1], the EC50 is 7.99 µM (active). For the same compound, the IC50 (on Exodeoxyribonuclease V; in experiment [2]) was > 119 µM (inactive) throughout. In addition, the AC50 with INS1 was 0.65 µM (active).
Take `O=C(Cc1ccc([N+](=O)[O-])cc1)N/N=C/c1ccc([N+](=O)[O-])o1`: in experiment [1], the EC50 is 11.9 µM (active). The IC50 at Exodeoxyribonuclease V was > 39.5 µM (inactive); in experiment [2], 16.6 µM (inactive).
